Converted amounts (≈) assume the structure as drawn.
Columns and labels:
[1] = system: RPMI 8226 (multiple myeloma) cells; test: MTT cell growth inhibition, multiple myeloma cells; type: cell-based, human; conditions: Homo sapiens, RPMI 8226, 72 h, MTT
Description: Myeloma cell lines: RPMI8226 (multiple myeloma), purchased from Fuxiang Bio-tech Co. Ltd., Shanghai, China.
(§1) 6000 well-growing cells were obtained and inoculated into wells of a 96-well cell culture plate. The culture medium was a RPMI-1640 cell culture medium containing 10% fetal bovine serum. After adding the 7-substituted fangchinoline derivatives of different concentrations the next day and mixing uniformly, the plate was placed in a carbon dioxide cell incubator (5% CO2) at 37° C. and incubated for 72 hours. Then the viable cell concentration was determined by the MTT method.

[2] = system: U87-MG (malignant glioma) cells; test: MTT cell growth inhibition, solid tumor cells; type: cell-based; conditions: Homo sapiens, U-87 MG, U87-MG, 72 h, MTT
Text: (§2) Hep-2 (laryngeal carcinoma), A549 (human lung cancer), CaES-17 (esophageal cancer cell), PC-3 (prostate cancer), CNE (nasopharyngeal carcinoma cell) and SK-OV-3 (ovarian cancer cell), all of which were purchased from China Center For Type Culture Collection; RKO (human colon adenocarcinoma cell), MGC-803 (human gastric cancer cell), MG-63 (osteosarcoma), and U87-MG (malignant glioma cell), all of which were purchased from Fuxiang Bio-tech Co. Ltd., Shanghai, China; PANC-1 (pancreatic cancer), Becap37 (human breast cancer cell), Hela (human cervical cancer cell) and Hep G2 (human liver cancer cell), all of which were donated by Cancer Research Institute of Zhejiang University, China.
as §1, with “well-growing human solid tumor” for “well-growing”, “DMEM High Glucose” for “a RPMI-1640”, “serum. The plate was placed in a carbon dioxide cell incubator (5% CO2) at 37° C. and incubated for 24 hours.” for “serum.”, “added with” for “adding the”, “concentration” for “concentrations the next day”

[3] = system: Hep G2 (human liver cancer) cells; test: MTT cell growth inhibition, solid tumor cells; type: cell-based; conditions: Homo sapiens, HepG2, Hep G2, 72 h, MTT
Text: as §2
as §1, with “well-growing human solid tumor” for “well-growing”, “DMEM High Glucose” for “a RPMI-1640”, “serum. The plate was placed in a carbon dioxide cell incubator (5% CO2) at 37° C. and incubated for 24 hours.” for “serum.”, “added with” for “adding the”, “concentration” for “concentrations the next day”

[4] = system: RKO (human colon adenocarcinoma) cells; test: MTT cell growth inhibition, solid tumor cells; type: cell-based; conditions: Homo sapiens, RKO, 72 h, MTT
Text: as §2
as §1, with “well-growing human solid tumor” for “well-growing”, “DMEM High Glucose” for “a RPMI-1640”, “serum. The plate was placed in a carbon dioxide cell incubator (5% CO2) at 37° C. and incubated for 24 hours.” for “serum.”, “added with” for “adding the”, “concentration” for “concentrations the next day”

[5] = system: A549 (human lung cancer) cells; test: MTT cell growth inhibition, solid tumor cells; type: cell-based; conditions: Homo sapiens, A549, 72 h, MTT
Text: as §2
as §1, with “well-growing human solid tumor” for “well-growing”, “DMEM High Glucose” for “a RPMI-1640”, “serum. The plate was placed in a carbon dioxide cell incubator (5% CO2) at 37° C. and incubated for 24 hours.” for “serum.”, “added with” for “adding the”, “concentration” for “concentrations the next day”

[6] = system: MG-63 (osteosarcoma) cells; test: MTT cell growth inhibition, solid tumor cells; type: cell-based; conditions: Homo sapiens, MG-63, 72 h, MTT
Text: as §2
as §1, with “well-growing human solid tumor” for “well-growing”, “DMEM High Glucose” for “a RPMI-1640”, “serum. The plate was placed in a carbon dioxide cell incubator (5% CO2) at 37° C. and incubated for 24 hours.” for “serum.”, “added with” for “adding the”, “concentration” for “concentrations the next day”

[7] = system: MGC-803 (human gastric cancer) cells; test: MTT cell growth inhibition, solid tumor cells; type: cell-based; conditions: MGC-803, 72 h, MTT
Text: as §2
as §1, with “well-growing human solid tumor” for “well-growing”, “DMEM High Glucose” for “a RPMI-1640”, “serum. The plate was placed in a carbon dioxide cell incubator (5% CO2) at 37° C. and incubated for 24 hours.” for “serum.”, “added with” for “adding the”, “concentration” for “concentrations the next day”

[8] = system: Hep-2 (laryngeal carcinoma) cells; test: MTT cell growth inhibition, solid tumor cells; type: cell-based; conditions: Homo sapiens, Hep-2, 72 h, MTT
Text: as §2
as §1, with “well-growing human solid tumor” for “well-growing”, “DMEM High Glucose” for “a RPMI-1640”, “serum. The plate was placed in a carbon dioxide cell incubator (5% CO2) at 37° C. and incubated for 24 hours.” for “serum.”, “added with” for “adding the”, “concentration” for “concentrations the next day”

[9] = system: Becap-37 (human breast cancer) cells; test: MTT cell growth inhibition, solid tumor cells; type: cell-based; conditions: Homo sapiens, Becap-37, 72 h, MTT
Text: as §2
as §1, with “well-growing human solid tumor” for “well-growing”, “DMEM High Glucose” for “a RPMI-1640”, “serum. The plate was placed in a carbon dioxide cell incubator (5% CO2) at 37° C. and incubated for 24 hours.” for “serum.”, “added with” for “adding the”, “concentration” for “concentrations the next day”

[10] = system: Hela (human cervical cancer) cells; test: MTT cell growth inhibition, solid tumor cells; type: cell-based; conditions: Homo sapiens, Hela, 72 h, MTT
Text: as §2
as §1, with “well-growing human solid tumor” for “well-growing”, “DMEM High Glucose” for “a RPMI-1640”, “serum. The plate was placed in a carbon dioxide cell incubator (5% CO2) at 37° C. and incubated for 24 hours.” for “serum.”, “added with” for “adding the”, “concentration” for “concentrations the next day”

[11] = system: Kasumi-1 (acute myeloid leukemia M2 type) cells; test: MTT cell growth inhibition, leukemia cells; type: cell-based, human; conditions: Homo sapiens, Kasumi-1, 72 h, MTT
Text: (§3) Leukemia cell lines: leukemia cell lines: K562adr (drug-resistant, chronic myeloid leukemia, CML), NB4 (acute promyelocytic leukemia, AML), Kasumi-1 (acute myeloid leukemia M2 type, AML-M2), Jurkat (acute lymphoblastic leukemia, ALL), all of which were donated by Cancer Research Institute of Zhejiang University, China; and H9 (acute lymphoblastic leukemia, ALL), which was purchased from China Center for Type Culture Collection.
(§4) Reagents: The standard sample of fangchinoline (FAN) was purchased from Ci Yuan Biotechnology Co., Ltd., Shaanxi, China; and the 7-substituted fangchinoline derivatives according to the present invention.
as §1, with “well-growing leukemia” for “well-growing”, “incubating” for “incubated”

[12] = system: Jurkat (acute lymphoblastic leukemia) cells; test: MTT cell growth inhibition, leukemia cells; type: cell-based, human; conditions: Homo sapiens, Jurkat, 72 h, MTT
Text: as §3, §4
as §1, with “well-growing leukemia” for “well-growing”, “incubating” for “incubated”

[13] = system: CNE (nasopharyngeal carcinoma) cells; test: MTT cell growth inhibition, solid tumor cells; type: cell-based, human; conditions: Homo sapiens, CNE, 72 h, MTT
Text: as §2
as §1, with “well-growing human solid tumor” for “well-growing”, “DMEM High Glucose” for “a RPMI-1640”, “serum. The plate was placed in a carbon dioxide cell incubator (5% CO2) at 37° C. and incubated for 24 hours.” for “serum.”, “added with” for “adding the”, “concentration” for “concentrations the next day”

[14] = system: PC-3 (prostate cancer) cells; test: MTT cell growth inhibition, solid tumor cells; type: cell-based, human; conditions: Homo sapiens, PC-3, 72 h, MTT
Text: as §2
as §1, with “well-growing human solid tumor” for “well-growing”, “DMEM High Glucose” for “a RPMI-1640”, “serum. The plate was placed in a carbon dioxide cell incubator (5% CO2) at 37° C. and incubated for 24 hours.” for “serum.”, “added with” for “adding the”, “concentration” for “concentrations the next day”

[15] = system: SK-OV-3 (ovarian cancer) cells; test: MTT cell growth inhibition, solid tumor cells; type: cell-based, human; conditions: Homo sapiens, SK-OV-3, 72 h, MTT
Text: as §2
as §1, with “well-growing human solid tumor” for “well-growing”, “DMEM High Glucose” for “a RPMI-1640”, “serum. The plate was placed in a carbon dioxide cell incubator (5% CO2) at 37° C. and incubated for 24 hours.” for “serum.”, “added with” for “adding the”, “concentration” for “concentrations the next day”

[16] = system: CaEs-17 (esophageal cancer) cells; test: MTT cell growth inhibition, solid tumor cells; type: cell-based, human; conditions: Homo sapiens, CaEs17, CaEs-17, 72 h, MTT
Text: as §2
as §1, with “well-growing human solid tumor” for “well-growing”, “DMEM High Glucose” for “a RPMI-1640”, “serum. The plate was placed in a carbon dioxide cell incubator (5% CO2) at 37° C. and incubated for 24 hours.” for “serum.”, “added with” for “adding the”, “concentration” for “concentrations the next day”

[17] = system: PANC-1 (pancreatic cancer) cells; test: MTT cell growth inhibition, solid tumor cells; type: cell-based, human; conditions: Homo sapiens, PANC-1, 72 h, MTT
Text: as §2
as §1, with “well-growing human solid tumor” for “well-growing”, “DMEM High Glucose” for “a RPMI-1640”, “serum. The plate was placed in a carbon dioxide cell incubator (5% CO2) at 37° C. and incubated for 24 hours.” for “serum.”, “added with” for “adding the”, “concentration” for “concentrations the next day”

tumor = test: Antitumor activity compared with fangchinoline, overall statement; type: cell-based; conditions: tumor type not specified

IC50 ([1]; read-out: IC50): 0.12 µg/mL (≈ 0.177 µM)
IC90 ([1]; read-out: IC90): 0.5 µg/mL (≈ 0.739 µM)
IC50 ([2]; read-out: IC50): 2.28 µg/mL (≈ 3.37 µM)
IC90 ([2]; read-out: IC90): 7.03 µg/mL (≈ 10.4 µM)
IC50 ([3]; read-out: IC50): 2.37 µg/mL (≈ 3.5 µM)
IC90 ([3]; read-out: IC90): 7.01 µg/mL (≈ 10.4 µM)
IC50 ([4]; read-out: IC50): 1.25 µg/mL (≈ 1.85 µM)
IC90 ([4]; read-out: IC90): 3.73 µg/mL (≈ 5.51 µM)
IC50 ([5]; read-out: IC50): 2.55 µg/mL (≈ 3.77 µM)
IC90 ([5]; read-out: IC90): 4.97 µg/mL (≈ 7.34 µM)
IC50 ([6]; read-out: IC50): 2.8 µg/mL (≈ 4.14 µM)
IC90 ([6]; read-out: IC90): 3.6 µg/mL (≈ 5.32 µM)
IC50 ([7]; read-out: IC50): 1.4 µg/mL (≈ 2.07 µM)
IC90 ([7]; read-out: IC90): 3.96 µg/mL (≈ 5.85 µM)
IC50 ([8]; read-out: IC50): 4.2 µg/mL (≈ 6.21 µM)
IC90 ([8]; read-out: IC90): 10.3 µg/mL (≈ 15.2 µM)
IC50 ([9]; read-out: IC50): 3.19 µg/mL (≈ 4.71 µM)
IC90 ([9]; read-out: IC90): 6.1 µg/mL (≈ 9.01 µM)
IC50 ([10]; read-out: IC50): 1.43 µg/mL (≈ 2.11 µM)
IC90 ([10]; read-out: IC90): 3.71 µg/mL (≈ 5.48 µM)
IC50 ([11]; read-out: IC50): 1.15 µg/mL (≈ 1.7 µM)
IC90 ([11]; read-out: IC90): 3.72 µg/mL (≈ 5.5 µM)
IC50 ([12]; read-out: IC50): 0.93 µg/mL (≈ 1.37 µM)
IC90 ([12]; read-out: IC90): 3.09 µg/mL (≈ 4.57 µM)
IC50 ([13]; read-out: IC50): 3.2 µg/mL (≈ 4.73 µM)
IC90 ([13]; read-out: IC90): 7.6 µg/mL (≈ 11.2 µM)
IC50 ([14]; read-out: IC50): 4.55 µg/mL (≈ 6.72 µM)
IC90 ([14]; read-out: IC90): 7.61 µg/mL (≈ 11.2 µM)
IC50 ([15]; read-out: IC50): 5.41 µg/mL (≈ 7.99 µM)
IC90 ([15]; read-out: IC90): 14.2 µg/mL (≈ 21.1 µM)
IC50 ([16]; read-out: IC50): 2.6 µg/mL (≈ 3.84 µM)
IC90 ([16]; read-out: IC90): 9.32 µg/mL (≈ 13.8 µM)
IC50 ([17]; read-out: IC50): 2.79 µg/mL (≈ 4.12 µM)
IC90 ([17]; read-out: IC90): 7.68 µg/mL (≈ 11.3 µM)
SMILES: COc1ccc2cc1Oc1ccc(cc1)C[C@H]1c3cc(c(OC)cc3CCN1C)Oc1c(OC3CCCC3)c(OC)cc3c1[C@H](C2)N(C)CC3 [BS-FC-220]
antitumor activity compared with that of fangchinoline (tumor): significantly superior

— patent US9328122B2, “7-substituted Hanfangichin B derivative, and preparation method and use thereof” (HANGZHOU BENSHENG PHARMACEUTICAL CO., LTD., priority 2012, dated 2016)
